“Also recorded” adds a separate entry of the source. Read-outs that look alike come from different tables or passages of the source.
How the values were obtained:
[1] = target: T1, Aβ42 oligomers (Homo sapiens, UniProt P05067); test: Ca2+ influx assay (lipid vesicle disruption); type: biochemical; details: 2 μM Aβ42; 5-fold excess added at 0 h; measured at 2 h (half-time)
T1 construct: made in house; host or cells: E. coli BL21 Gold (DE3)
Description: Single vesicles tethered to PLL-PEG coated borosilicate glass coverslides (VWR International, 22×22 mm, product number 63 1-0122) were placed on an oil immersion objective mounted on an inverted Olympus IX-71 microscope. Each coverslide was affixed at Frame-Seal incubation chambers and was incubated with 50 μL of HEPES buffer of pH 6.5. Just before the imaging, the HEPES buffer was replaced with 50 μL Ca^2+ containing buffer solution L-15. 16 (4×4) images of the coverslide were recorded under three different conditions (background, in the presence of Aβ42 and after addition of ionomycin (Cambridge Bioscience Ltd, Cambridge, UK), respectively). The distance between each field of view was set to 100 μm, and was automated (bean-shell script, Micromanager) to avoid any user bias. After each measurement the script allowed the stage (Prior H117, Rockland, Mass., USA) to move the field of view back to the start position such that identical fields of view could be acquired for the three different conditions. Images of the background were acquired in the presence of L15 buffer. For each field of view 50 images were taken with an exposure time of 50 ms. […] The recorded images were analysed using ImageJ to determine the fluorescence intensity of each spot under the three different conditions in the presence of an aggregation mixture incubated with and without Netoglitazone.

[2] = test system: Aβ3-42::GFPMuscular worms (CL2331); test: Automated motility assay in Aβ3-42::GFPMuscular worms; type: in vivo, C. elegans; details: vs untreated worms
Description: CL2331; dvIs37 [myo-3p::GFP::A-Beta (3-42)+rol-6(su1006)] (Aβ3-42::GFPMuscular worms). Maintain at 16C. Roller. Diffuse and aggregated GFP expression in body wall muscle. Low brood size. Sicker at higher temperatures. (C. D. Link et al., The β amyloid peptide can act as a modular aggregation domain. Neurobiol. Dis. 32, 420-425 (2008)); and
Briefly, Netoglitazone stocks (5 mM in 100% DMSO) were used at an appropriate concentration to seed 9-cm NGM plates. Plates were then placed in a laminar flow hood at room temperature (22° C.) for up to 4 hours to dry. […]
All C. elegans populations were cultured at 20° C. and developmentally synchronized from a 4 h egg-lay. At 64-72 h post-egg-lay (time zero), individuals were transferred to FUDR plates, and body movements were assessed over the times indicated. At different ages, the animals were washed off the plates with M9 buffer and spread over an OP-50 unseeded 9 cm plate, after which their movements were recorded at 20 fps using a recently developed microscopic procedure (M. Perni et al., Massively parallel C. elegans tracking provides multi-dimensional fingerprints for phenotypic discovery. J. Neurosci. Methods. 306, 57-67 (2018)) for 1 min. Up to 600 animals were counted in each experiment in duplicate unless stated otherwise. […]

[3] = Brain microdialysis time course study (striatum); type: in vivo, male C57BL/6 mice; details: 15 mg/kg po; for Netoglitazone (ng/ml) in microdialysate / Netoglitazone (ng/ml) corrected for recovery: striatum; for Netoglitazone (ng/ml) corrected for recovery: recovery 0.11; for concentration at 6 h: terminal sample shortly after 6 hours
Description: To further assess the free drug exposure in the CNS following dosing of Netoglitazone an in vivo surgical microdialysis time course study was performed. Microdialysis is a minimally-invasive sampling technique that is used for continuous measurement of free, unbound analyte concentrations in the extracellular fluid of virtually any tissue (e.g. ISF in the brain). The microdialysis technique requires the insertion of a small microdialysis catheter (also referred to as microdialysis probe) into the tissue of interest. The microdialysis probe is designed to mimic a blood capillary and consists of a shaft with a semipermeable hollow fiber membrane at its tip, which is connected to inlet and outlet tubing. The probe is continuously perfused with an aqueous solution (perfusate) that closely resembles the (ionic) composition of the surrounding tissue fluid at a low flow rate of approximately 0.1-5 μL/min. Once inserted into the tissue or (body)fluid of interest, small solutes can cross the semipermeable membrane by passive diffusion. The direction of the analyte flow is determined by the respective concentration gradient and allows the usage of microdialysis probes as sampling as well as delivery tools. The solution leaving the probe (dialysate) is collected at certain time intervals for analysis. It is widely recognised as the ‘gold standard’ technique for measuring free drug levels in the CNS. Briefly, 3 male C57BL/6 mice (18 weeks old) were surgically prepared with one cannula in the brain to allow for microdialysis sampling from the striatum. Animals were allowed one day to recover and then habituated to the microdialysis cages overnight. On the study day, a microdialysis probe was inserted through the implanted cannula. […] At the end of the experiment animals were anaesthetised and terminal blood and brain samples collected.

T1 sequence (P05067 671-713): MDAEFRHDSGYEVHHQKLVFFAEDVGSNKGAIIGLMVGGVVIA

O=C1NC(=O)C(Cc2ccc3cc(OCc4ccccc4F)ccc3c2)S1 (stereo not shown) [Netoglitazone]
Protection against lipid vesicle disruption by Aβ42 oligomers (Ca2+ influx) [1]: protected against the neurotoxic species-induced vesicle disruption; also recorded: decreased substantially the toxic effect | Motility of Aβ3-42::GFPMuscular worms [2]: significantly improves the motility of Aβ3-42::GFPMuscular worms | Crossing of the blood-brain barrier after oral administration [3]: readily crosses the blood-brain barrier | First microdialysate fraction in which compound could be detected ([3]; post administration): 30 to 60 min | Netoglitazone (ng/ml) in microdialysate ([3]; 0-30 min after dose): <LLOQ | Netoglitazone (ng/ml) in microdialysate ([3]; 30-60 min after dose): 0.4 ng/mL | Netoglitazone (ng/ml) in microdialysate ([3]; 60-90 min after dose): 0.5 ng/mL | Netoglitazone (ng/ml) in microdialysate ([3]; 90-120 min after dose): 0.7 ng/mL | Netoglitazone (ng/ml) in microdialysate ([3]; 120-150 min after dose): 0.9 ng/mL | Netoglitazone (ng/ml) in microdialysate ([3]; 150-180 min after dose): 1.1 ng/mL | Netoglitazone (ng/ml) in microdialysate ([3]; 180-210 min after dose): 1.3 ng/mL | Netoglitazone (ng/ml) in microdialysate ([3]; 210-240 min after dose): 1.5 ng/mL | Netoglitazone (ng/ml) in microdialysate ([3]; 240-270 min after dose): 1.9 ng/mL | Netoglitazone (ng/ml) in microdialysate ([3]; 270-300 min after dose): 2.8 ng/mL | Netoglitazone (ng/ml) in microdialysate ([3]; 300-330 min after dose): 3.3 ng/mL | Netoglitazone (ng/ml) in microdialysate ([3]; 330-360 min after dose): 3.6 ng/mL | Netoglitazone (ng/ml) corrected for recovery ([3]; 0-30 min after dose): <LLOQ | Netoglitazone (ng/ml) corrected for recovery ([3]; 30-60 min after dose): 3.6 ng/mL | Netoglitazone (ng/ml) corrected for recovery ([3]; 60-90 min after dose): 4.5 ng/mL | Netoglitazone (ng/ml) corrected for recovery ([3]; 90-120 min after dose): 6.4 ng/mL | Netoglitazone (ng/ml) corrected for recovery ([3]; 120-150 min after dose): 8.2 ng/mL | Netoglitazone (ng/ml) corrected for recovery ([3]; 150-180 min after dose): 10.0 ng/mL | Netoglitazone (ng/ml) corrected for recovery ([3]; 180-210 min after dose): 11.8 ng/mL | Netoglitazone (ng/ml) corrected for recovery ([3]; 210-240 min after dose): 13.6 ng/mL | Netoglitazone (ng/ml) corrected for recovery ([3]; 240-270 min after dose): 17.3 ng/mL | Netoglitazone (ng/ml) corrected for recovery ([3]; 270-300 min after dose): 25.5 ng/mL | Netoglitazone (ng/ml) corrected for recovery ([3]; 300-330 min after dose): 30.0 ng/mL | Netoglitazone (ng/ml) corrected for recovery ([3]; 330-360 min after dose): 32.7 ng/mL | Kp at 6 h ([3]; male, C57BL/6, mouse, brain / plasma, terminal samples shortly after 6 hours, read-out: Brain:plasma ratio): 0.8 | concentration at 6 h ([3]; male, C57BL/6, mouse, plasma, read-out: Concentration in plasma): 13300 ng/mL | concentration at 6 h ([3]; male, C57BL/6, mouse, whole brain, read-out: Concentration in brain): 10300 ng/g
